Results from patent US11814390B2, “Crystalline forms of 2-[3-[4-amino-3-(2-fluoro-4-phenoxy-phenyl)-1H-pyrazolo[3,4-D]pyrimidin-1-yl]piperidine-1-carbonyl]-4-methyl-4-[4-(oxetan-3-yl)piperazin-1-yl]pent-2-enenitrile” (Principia Biopharma Inc., priority 2020, dated 2023).
“Also recorded” adds a separate entry of the source.

Tests used:
[1] = Conversion between crystalline forms over time / relative thermodynamic stability at room temperature; format: physicochemical
Protocol: Several crystallization experiments were conducted in as part of a polymorph study for Compound (I). The experiments comprised different crystallization techniques such as suspension equilibration experiments, precipitations, cooling crystallizations, and vapor diffusion experiments.

[2] = Water content upon storage at high relative humidity (hygroscopicity); format: physicochemical; details: storage at 85% relative humidity (RH)

SMILES | relative thermodynamic stability of crystalline form ([1]; at room temperature) | water content upon storage [2] | conversion of crystalline form over time ([1]; over time)
CC(C)(C=C(C#N)C(=O)N1CCC[C@@H](n2nc(-c3ccc(Oc4ccccc4)cc3F)c3c(N)ncnc32)C1)N1CCN(C2COC2)CC1 [Crystalline Form B, (R)-2-[3-[4-amino-3-(2-fluoro-4-phenoxy-phenyl)pyrazolo[3,4-d]pyrimidin-1-yl]piperidine-1-carbonyl]-4-methyl-4-[4-(oxetan-3-yl)piperazin-1-yl]pent-2-enenitrile] | may be thermodynamically more stable than crystalline Form A; also recorded: may be more thermodynamically more stable than crystalline Form C |  | 
CC(C)(C=C(C#N)C(=O)N1CCC[C@@H](n2nc(-c3ccc(Oc4ccccc4)cc3F)c3c(N)ncnc32)C1)N1CCN(C2COC2)CC1 [crystalline Form A, (R)-2-[3-[4-amino-3-(2-fluoro-4-phenoxy-phenyl)pyrazolo[3,4-d]pyrimidin-1-yl]piperidine-1-carbonyl]-4-methyl-4-[4-(oxetan-3-yl)piperazin-1-yl]pent-2-enenitrile] |  | less than 1% | may convert to crystalline Form B over time
